Tests used:
[1] = tested on: neocortical neurons transfected with Gaussia luciferase; assay: IVIS imaging of mouse brain expressing Gaussia luciferase after intravenous coelenterazine; type: in vivo; settings: intravenous injection several weeks after transfection; right hemisphere
Description: FIG. 2 is a photograph showing an example in which neocortical neurons in the right hemisphere were transfected with a Gaussia luciferase.
Several weeks later, coelenterazine was administered intravenously to the mouse, and an image of the mouse's head was taken with IVIS® imaging system (FIG. 2).

[2] = tested on: neocortical neurons expressing eGLuc-Mac; assay: action potential firing in cultured neocortical neurons expressing eGLuc-Mac; type: cell-based; settings: cell expressing fusion protein containing eGLuc-Mac (hyperpolarization)
Excerpt: (§1) The neurons were modified to express fusion proteins including a luminescent protein (enhanced Gaussia luciferase (eGLuc)) and either VChR1 or Mac. Successful expression of the full construct in the neocortical neurons was confirmed by observation of the fluorescence of the reporter protein (upper middle panel titled Fluorescence in FIG. 3). Ability of eGLuc to luminesce was unaffected by the inclusion of light-gated ion channel (VChR1 or Mac), as shown in the upper right panel titled Luminescence in FIG. 3).

[3] = tested on: neocortical neurons expressing eGLuc-VChR1; assay: action potential firing in cultured neocortical neurons expressing eGLuc-VChR1; type: cell-based; settings: cell expressing fusion protein containing eGLuc-VChR1 (depolarization)
Excerpt: as §1

[4] = tested on: rat cortical neurons expressing LMO3; assay: multi electrode array (MEA) recording and luminescence of cortical neurons expressing LMO3 (sbGLuc-VChR1); type: cell-based
Excerpt: FIGS. 12A-12D show multi electrode arrays used in the in vitro experiments on rat cortical neurons. FIG. 12A is a schematic of the multi electrode array. FIGS. 12B and 12C are images of the electrode array. FIG. 12D is a fluorescent image of MEA culture of rat cortical neurons transduced with AAV-hSyn-LMO3, where LMO3 is a fusion of sbGLuc and VChR1. Neurons are visible in fluorescent green, because of the expression of LMO3, which includes EYFP.
FIG. 13 is a series of graphs showing the luminescence and neuronal activity of rat cortical neurons in response to contacting with coelenterazine (CTZ) or with the vehicle.
Excitable cells (rat cortical neurons) expressing a light-gated ion channel (VChR1) fused to a luminescent protein (Gaussia luciferase) were cultured on multi electrode arrays (MEA), as shown in FIGS. 12A-12D. The results are shown in FIG. 13 Under continuous recording MEA dishes were injected (see arrows) with CTZ or with vehicle. Upon injection a pronounced artifact was observed (see FIG. 13). […] In contrast, vehicle injection causes the artifact, but neuronal spiking pattern is not altered. […] Neurons in the culture express LMO3 (luminopsins 3, a fusion of sbGLuc and VChR1). Upon application of substrate (CTZ), but not of vehicle, the luciferase emits light which activates the channelrhodopsin, resulting in changed spiking activity (see before and after CTZ). […]

[5] = tested on: TRN and neighboring relay nuclei (eGLuc-VChR1); assay: in vivo laminar electrode recording from TRN and neighboring relay nuclei after IV CTZ; design: species or system mice; settings: ca. 150 μg CTZ IV (tail vein)
Description: (§2) Mice were injected with AAV2/9-hSyn-eGLuc-VChR1 into the thalamus of mice, and in vitro slice experiments were performed 7-12 days later. […] VPm expression was negligible except from TRN axons. Expressing TRN neurons were electrophysiologically normal, and strongly responsive to LED light pulses (FIGS. 5B and 5C). The short latencies and other properties of these responses indicate robust VChR1 expression. Superfusion of the luciferin CTZ (100 μM) caused ca. 1-3 mV reversible depolarization (FIGS. 5D and 5E; N=3 cells, 2 mice). […] At 20 days post viral injection, a 16-contact laminar electrode was used to record from the TRN and neighboring relay nuclei under light isoflurane anesthesia (0.5%). […] Spike shape also indicated relay neuron and not TRN identity. […] These combined effects are consistent with TRN-driven hyperpolarization of this neuron and a shift to burst mode.

[6] = tested on: TRN neurons expressing eGLuc-VChR1; assay: in vitro slice recordings of TRN neurons transduced with AAV2/9-hSyn-eGLuc-VChR1, CTZ superfusion; type: cell-based, mice
Description: as §2

Oc1ccc(Cc2nc3c(Cc4ccccc4)nc(-c4ccc(O)cc4)cn3c2O)cc1 [CTZ, coelenterazine]
bioluminescence emission through the scalp [1]: emitted brightly
spontaneous action potential firing [2]: suppression of spontaneous action potential firing
spontaneous action potential firing [3]: increase in spontaneous action potential firing
neuronal spiking pattern on MEA ([4]; CTZ injected into MEA dishes, vehicle does not alter pattern): desynchronized spiking
luminescence of neurons ([4]; contacting with CTZ vs vehicle): results in luminescence
burst rate in Cell 2 (events with 100 msec prior inactivity and >95 Hz spike rate) [5]: increase in burst rate
firing rate in other cells (Cell 2, relay neuron) [5]: decreases in firing rate
firing in multi-unit activity and well-isolated single neurons (Cell 1) ([5]; putative TRN, 20 days post viral injection, isoflurane 0.5%): firing increased
onset of stimulus-evoked spike bursts ([6]; CTZ-evoked depolarization vs control): delaying onset of stimulus-evoked spike bursts
reversible depolarization ([6]; superfusion of CTZ 100 μM, N=3 cells, 2 mice): 1-3 mV

Source: patent publication US11242374B2, “Minimally-invasive and activity-dependent control of excitable cells” (Brown University, priority 2015, dated 2022)
